# Measured values from US20220143003A1, “COMPOSITIONS AND METHODS TO TREAT NON-ALCOHOLIC FATTY LIVER DISEASES (NAFLD)” (Coherus Biosciences, Inc., priority 2018, published 2022).
# Experiments:
# Type in all cases: in vivo, male C57BL/6JRj mice
# DIO-NASH mice [1] = assay: EchoMRI body composition (MRI body weight, fat, lean and free water mass); settings: week 11, group mean
# Experimental: The body composition of the mice was assessed by an EchoMRI 3-1 Body composition analyzer (EchoMRI, US). Non-anaesthetised mice was placed in a plastic tube inside the MRI scanner for approximately 80 seconds. The body composition is expressed as fat mass, fat free mass (lean mass) and water.
# DIO-NASH mice [2] = assay: Plasma alanine transaminase (ALT) at termination; settings: termination; group mean; CHS-131 High dose (alone or combined)
# Experimental: (§1) For plasma biochemistry, tail blood was drawn directly through the capillary of a Microvette/Vacuette of the right dimension and anticoagulant and mixed by inversion 5 times. Blood was placed at 4° C. until centrifugation at 3000×g for 10 minutes at 4° C. The plasma supernatants were transferred to new tubes and immediately frozen on dry ice and stored at −80° C. until analysis.
# (§2) Mouse insulin was measured in single determinations using the MSD platform (Meso Scale Diagnostics).
# Plasma alanine transaminase (ALT) at termination (U/L). Values expressed as mean of n=11-14+SEM.
# DIO-NASH mice [3] = assay: Plasma urea at termination; settings: termination; group mean; CHS-131 High dose (alone or combined)
# Experimental: as §1, §2
# Plasma urea at termination (mmol/L). Values expressed as mean of n=12-14+SEM.
# DIO-NASH mice [4] = assay: Liver total cholesterol (TC) at termination; settings: group mean, CHS-131 High dose (alone or combined)
# Experimental: (§3) The liver post-biopsy for histological analyses was removed by dissection from the left lateral lobe, fixated in 4% formalin for 20-24 h, and subsequently embedded in paraffin. Liver biopsies for liver triglycerides and total cholesterol were dissected from the medial lobe, snap frozen in liquid nitrogen, and stored at −80° C., while liver biopsies for hydroxyproline were dissected from the caudal lobe (the entire lobe), snap frozen in liquid nitrogen and stored at −80° C. Finally, a liver sample for RNA isolation and gene expression analysis was dissected from the left lateral lobe, snap frozen in liquid nitrogen, and stored at −80° C. until processing.
# For liver TG and TC quantification, samples were homogenized, and TG and TC extracted in 5% NP-40 by heating twice to 90° C. The samples were centrifuged, and the TG and TC content measured in the supernatant, using commercial kits (Roche Diagnostics) on the Cobas c501 autoanalyzer according to the manufacturer's instructions.
# Relative (mg/g of liver) liver total cholesterol (TC) at termination. Values expressed as mean of n=12-14+SEM.
# Total (mg/liver) liver total cholesterol (TC) at termination. Values expressed as mean of […]+SEM.
# DIO-NASH mice [5] = assay: Liver hydroxyproline (HP) at termination, colorimetric assay; settings: termination; group mean; CHS-131 High dose (alone or combined)
# Experimental: as §3
# For liver hydroxyproline (HP; a protein marker of fibrosis) quantification, liver samples were homogenized in 6 M HCl and hydrolyzed to degrade collagen. The samples were centrifuged, and the hydroxyproline content measured in duplicates in the supernatant, using a colorimetric assay (Quickzyme Biosciences) according to the manufacturer's instructions.
# Relative liver hydroxyproline (HP) (μg/mg of liver) at termination. Values expressed as mean of n=12-14+SEM.
# Total liver hydroxyproline (HP) (μg/liver) at termination. Values expressed as mean of n=12-14+SEM.
# DIO-NASH mice [6] = assay: Liver Collagen 1A1 (Col1a1) IHC quantified by morphometry; settings: terminal; group mean; CHS-131 High dose (alone or combined)
# Experimental: After surgery, the animals were evaluated daily on general health and body weight. […] The pre-biopsy was analyzed to evaluate liver steatosis score and fibrosis stage for study inclusion as outlined by Kleiner et al. (2005) (Table 1). In addition, liver Collagen 1a1 (Col1a1) quantified by morphometry was used to perform a stratified randomization of NASH-affected animals into study groups (see description of histopathological stains and analyses below).
# (§4) Protein markers of fibrosis (Col1a1), fibrogenesis (α-SMA) and inflammation (Gal-3) were assessed by immunohistochemistry. α-SMA and collagen type I increase in regulation of quiescent hepatic stellate cell activation into myofibroblast-like cells where activated hepatic stellate cells are the main collagen producing cells in the liver (Carpino et al 2005, Hou and Syn 2018) whereas Gal-3 is involved in mediating inflammatory response and considered as a macrophage activation marker (Sciacchitano et al, 2018). For morphometric quantification of liver Col1a1 (using antibody from Southern Biotech, Cat. #1310-01), alpha-smooth muscle actin (α-SMA; using antibody from Abcam, Cat. #Ab124964) and Galectin-3 (using antibody from Biolegend, Cat. #125402), IHC staining was performed using standard procedures. Briefly, after antigen retrieval and blocking of endogenous peroxidase activity, slides were incubated with primary antibody. For all IHC stains, the primary antibody was detected using a polymeric HRP-linker antibody conjugate and visualized using DAB as chromogen. Finally, sections were counterstained in hematoxylin and cover-slipped before scanning.
# (§5) Quantitative assessment of immunoreactivity is evaluated as follows. IHC-positive staining is quantified by image analysis using the Visiomorph software (Visiopharm, Denmark). Visiomorph protocols are designed to analyze the virtual slides in two steps: 1. Crude detection of tissue at low magnification (1× objective). The liver capsule is excluded. 2. Detection of IHC-positive staining (e.g. green; collagen 1 IHC), tissue (e.g. red) and fat (e.g. pink) at high magnification (10×objective). The quantitative estimate of IHC-positive staining is calculated as an area fraction (AF) according to the following formula:
# Liver fibrosis (Col1a1%) at baseline. Values expressed as mean of n=12-14+SEM.
# Terminal liver Collagen 1A1 (Col1a1) was quantified by morphometry. Relative Terminal liver Col1a1 (% fractional area) is expressed as mean of n=12-14+SEM.
# Total terminal Col1a1 values are in milligrams (% fractional area multiplied with liver weight) and expressed as mean of n=12-14+SEM.
# DIO-NASH mice [7] = assay: Liver Galectin-3 IHC quantified by morphometry; settings: at termination, mean of n=12-14
# Experimental: as §4, §5
# Terminal liver Galectin-3 was quantified by morphometry. Relative terminal liver Galectin-3 (% fractional area) is expressed as mean of n=12-14+SEM.
# Total terminal Galectin-3 values are in milligrams (% fractional area multiplied with liver weight) and expressed as mean of n=12-14+SEM.
# [8] = DIO-NASH mice, CHS-131 High 30 mg/kg, empagliflozin 10 mg/kg, elafibranor 30 mg/kg PO, liraglutide 0.4 mg/kg SC, QD
compound,measurement,setting,value
"CSc1ccc(C(=O)/C=C/c2cc(C)c(OC(C)(C)C(=O)O)c(C)c2)cc1 [Elafibranor, reference compound]",Absolute fat tissue mass at week 11,DIO-NASH mice [1]; [8],3.73 g
same,Absolute free water mass at week 11,DIO-NASH mice [1]; [8],0.0923 g
same,MRI body weight at week 11,DIO-NASH mice [1]; [8],32.5 g
same,Relative fat tissue mass at week 11,DIO-NASH mice [1]; [8],11.3 % of body weight
same,Relative lean tissue mass at week 11,DIO-NASH mice [1]; [8],52.6 % of body weight
same,Relative free water mass (% of body weight),DIO-NASH mice [1]; CHS-131 High dose (alone or combined),0.292 % of body weight
same,Plasma alanine transaminase (ALT) at termination,DIO-NASH mice [2],144 U/L
same,Plasma urea at termination,DIO-NASH mice [3],8.01 mmol/L
same,Relative liver total cholesterol (TC) at termination,DIO-NASH mice [4],8.87 mg/g of liver
same,Total liver total cholesterol (TC) at termination,DIO-NASH mice [4],38.3 mg/liver
same,Relative liver hydroxyproline (HP) at termination,DIO-NASH mice [5],0.0389 μg/mg of liver
same,Total liver hydroxyproline (HP) at termination,DIO-NASH mice [5],164 μg/liver
same,Relative terminal liver Col1a1 by morphometry,DIO-NASH mice [6],6.27 % fractional area
same,Total terminal Col1a1 (% fractional area multiplied with liver weight),DIO-NASH mice [6],270 milligrams
same,Total terminal liver Galectin-3 (Average),DIO-NASH mice [7]; % fractional area multiplied with liver weight,104 milligrams
same,Relative terminal liver Galectin-3 (Average),DIO-NASH mice [7]; morphometry,2.43 % fractional area
